Source: patent US20120121591A1 (priority 2009, published 2012)
Read-outs that look alike come from different tables or passages of the source. Positions of bridges follow the written chain, without caps; N, C: chain ends. Residues, ends and D or L forms follow the SMILES beside them.

Columns and labels:
Type in all cases: cell-based
[1] = test system: IFN-g secretion from T cells in human whole blood
[2] = molecular target: hKv1.3 (Homo sapiens, UniProt P22001); assay: cell-based; details: Kv1.3 (IWQ) IC50 (nM, Avg)
Sequence of hKv1.3 (P22001 whole entry): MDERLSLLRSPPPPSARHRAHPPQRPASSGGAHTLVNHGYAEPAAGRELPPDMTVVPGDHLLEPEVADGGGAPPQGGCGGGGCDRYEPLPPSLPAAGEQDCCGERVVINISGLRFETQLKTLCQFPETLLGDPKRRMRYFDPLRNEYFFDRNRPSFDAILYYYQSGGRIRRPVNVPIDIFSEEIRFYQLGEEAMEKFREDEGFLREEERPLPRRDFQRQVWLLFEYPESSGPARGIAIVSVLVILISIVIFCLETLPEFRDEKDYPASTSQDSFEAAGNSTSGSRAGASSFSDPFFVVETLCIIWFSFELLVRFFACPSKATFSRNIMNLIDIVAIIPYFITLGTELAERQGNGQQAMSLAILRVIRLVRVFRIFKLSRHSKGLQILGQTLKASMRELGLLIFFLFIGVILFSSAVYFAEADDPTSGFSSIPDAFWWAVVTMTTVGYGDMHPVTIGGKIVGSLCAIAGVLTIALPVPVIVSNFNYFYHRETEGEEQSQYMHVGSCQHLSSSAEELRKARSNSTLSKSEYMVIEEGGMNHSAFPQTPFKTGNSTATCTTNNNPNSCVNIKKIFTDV

[3] = test system: IL-2 secretion from T cells in human whole blood; details: read-out: WB (IL-2) IC50 (nM, Avg)
[4] = read-out: WB (IFNg) IC50 (nM, Avg)

Row | Structure (SMILES) | IC50 [1, 4] | IC50 [2] | IC50 [3] | IC50 ([1]; read-out: WB (IFNg) IC5- (nM, Avg))
1 | CC[C@H](C)[C@@H]1NC(=O)[C@@H](NC(=O)[C@H](CO)NC(=O)[C@@H](N)CCCNC(=N)N)CSSC[C@@H](C(=O)O)NC(=O)[C@H](C)NC(=O)CNC(=O)[C@@H]2CSSC[C@@H]3NC(=O)[C@H](CCC(N)=O)NC(=O)[C@H](Cc4ccccc4)NC(=O)[C@H](C)NC(=O)[C@H]([C@@H](C)O)NC(=O)[C@H](CSSC[C@H](NC(=O)[C@H](Cc4ccccc4)NC(=O)[C@H](CO)NC(=O)[C@H](CC(C)C)NC(=O)[C@H](CCCNC(=N)N)NC(=O)[C@H](Cc4ccc(O)cc4)NC(=O)[C@H](CCCCN)NC(=O)[C@H](CCSC)NC(=O)[C@H](CO)NC(=O)[C@H](Cc4c[nH]cn4)NC(=O)[C@H](CCCCN)NC3=O)C(=O)N[C@@H](CCCNC(=N)N)C(=O)N[C@@H](CCCCN)C(=O)N[C@@H]([C@@H](C)O)C(=O)N2)NC(=O)[C@H](CCCNC(=N)N)NC(=O)[C@H](CO)NC(=O)[C@H](CCCCN)NC(=O)[C@@H]2CCCN2C(=O)[C@H]([C@@H](C)CC)NC(=O)[C@H]([C@@H](C)O)NC(=O)[C@H](CC(=O)O)NC1=O [[Ala34]ShK] | 0.075 nM | 0.123 nM | 0.063 nM | –
2 | CC[C@H](C)[C@@H]1NC(=O)[C@@H](NC(=O)[C@H](CO)NC(=O)[C@@H](N)CCCNC(=N)N)CSSC[C@@H](C(=O)O)NC(=O)[C@H]([C@@H](C)O)NC(=O)CNC(=O)[C@@H]2CSSC[C@@H]3NC(=O)[C@H](CCC(N)=O)NC(=O)[C@H](Cc4ccccc4)NC(=O)[C@H](C)NC(=O)[C@H]([C@@H](C)O)NC(=O)[C@H](CSSC[C@H](NC(=O)[C@H](Cc4ccccc4)NC(=O)[C@H](CO)NC(=O)[C@H](CC(C)C)NC(=O)[C@H](CCCNC(=N)N)NC(=O)[C@H](Cc4ccc(O)cc4)NC(=O)[C@H](CCCCN)NC(=O)[C@H](CCSC)NC(=O)[C@H](CO)NC(=O)[C@H](Cc4c[nH]cn4)NC(=O)[C@H](CCCCN)NC3=O)C(=O)N[C@@H](CCCNC(=N)N)C(=O)N[C@@H](CCCCN)C(=O)N[C@@H]([C@@H](C)O)C(=O)N2)NC(=O)[C@H](CCCNC(=N)N)NC(=O)[C@H](Cc2cccc3ccccc23)NC(=O)[C@H](CCCCN)NC(=O)[C@@H]2CCCN2C(=O)[C@H]([C@@H](C)CC)NC(=O)[C@H]([C@@H](C)O)NC(=O)[C@H](CC(=O)O)NC1=O [[1-Nal10]ShK] | 0.255 nM | 0.206 nM | 0.205 nM | –
3 | CC[C@H](C)[C@@H]1NC(=O)[C@@H](NC(=O)[C@H](CO)NC(=O)[C@@H](N)CCCNC(=N)N)CSSC[C@@H](C(N)=O)NC(=O)[C@H]([C@@H](C)O)NC(=O)CNC(=O)[C@@H]2CSSC[C@@H]3NC(=O)[C@H](CCCCN)NC(=O)[C@H](Cc4ccccc4)NC(=O)[C@H](C)NC(=O)[C@H]([C@@H](C)O)NC(=O)[C@H](CSSC[C@H](NC(=O)[C@H](Cc4ccc5ccccc5c4)NC(=O)[C@H](CO)NC(=O)[C@H](CC(C)C)NC(=O)[C@H](CCCNC(=N)N)NC(=O)[C@H](Cc4ccc(O)cc4)NC(=O)[C@H](CCCCN)NC(=O)[C@H](CCSC)NC(=O)[C@H](CO)NC(=O)[C@H](Cc4c[nH]cn4)NC(=O)[C@H](CCCCN)NC3=O)C(=O)N[C@@H](CCCCN)C(=O)N[C@@H](CCCCN)C(=O)N[C@@H]([C@@H](C)O)C(=O)N2)NC(=O)[C@H](CCCNC(=N)N)NC(=O)[C@H](CO)NC(=O)[C@H](CCCCN)NC(=O)[C@@H]2CCCN2C(=O)[C@H]([C@@H](C)CC)NC(=O)[C@H]([C@@H](C)O)NC(=O)[C@H](CC(=O)O)NC1=O [[Lys16, 29;2-Nal27]ShK-amide] | 24.7 nM | 10.1 nM | 13.1 nM | –
4 | CC[C@H](C)[C@@H]1NC(=O)[C@H]([C@@H](C)O)NC(=O)[C@H](CC(=O)O)NC(=O)[C@H](CCC(=O)O)NC(=O)[C@@H](NC(=O)[C@H](CO)NC(=O)[C@@H](N)CCCNC(=N)N)CSSC[C@@H](C(N)=O)NC(=O)[C@H]([C@@H](C)O)NC(=O)CNC(=O)[C@@H]2CSSC[C@@H]3NC(=O)[C@H](CCCCN)NC(=O)[C@H](Cc4ccccc4)NC(=O)[C@H](C)NC(=O)[C@H]([C@@H](C)O)NC(=O)[C@H](CSSC[C@H](NC(=O)[C@H](Cc4ccccc4)NC(=O)[C@H](CO)NC(=O)[C@H](CC(C)C)NC(=O)[C@H](CCCNC(=N)N)NC(=O)[C@H](Cc4ccc(O)cc4)NC(=O)[C@H](CCCCN)NC(=O)[C@H](CO)NC(=O)[C@H](CO)NC(=O)[C@H](Cc4c[nH]cn4)NC(=O)[C@H](CCCCN)NC3=O)C(=O)N[C@@H](CCCNC(=N)N)C(=O)N[C@@H](CCCCN)C(=O)N[C@@H]([C@@H](C)O)C(=O)N2)NC(=O)[C@H](CCCNC(=N)N)NC(=O)[C@H](CO)NC(=O)[C@H](CCCCN)NC(=O)[C@@H]2CCCN2C1=O [[Glu4, Lys16,Ser21]ShK-amide] | 1.99 nM | 0.098 nM | 0.86 nM | –
5 | CC[C@H](C)[C@@H]1NC(=O)[C@@H](NC(=O)[C@H](CO)NC(=O)[C@@H](N)CCCNC(=N)N)CSSC[C@@H](C(=O)O)NC(=O)[C@H]([C@@H](C)O)NC(=O)CNC(=O)[C@@H]2CSSC[C@@H]3NC(=O)[C@H](CCC(N)=O)NC(=O)[C@H](Cc4ccccc4)NC(=O)[C@H](C)NC(=O)[C@H]([C@@H](C)O)NC(=O)[C@H](CSSC[C@H](NC(=O)[C@H](Cc4ccccc4)NC(=O)[C@H](CO)NC(=O)[C@H](CC(C)C)NC(=O)[C@H](CCCNC(=N)N)NC(=O)[C@H](Cc4ccc(O)cc4)NC(=O)[C@H](CCCCN)NC(=O)[C@H](CCSC)NC(=O)[C@H](CO)NC(=O)[C@H](Cc4c[nH]cn4)NC(=O)[C@H](CCCCN)NC3=O)C(=O)N[C@@H](CCCNC(=N)N)C(=O)N[C@@H](CCCCN)C(=O)N[C@@H]([C@@H](C)O)C(=O)N2)NC(=O)[C@H](CCC(=O)O)NC(=O)[C@H](CO)NC(=O)[C@H](CCCCN)NC(=O)[C@@H]2CCCN2C(=O)[C@H]([C@@H](C)CC)NC(=O)[C@H]([C@@H](C)O)NC(=O)[C@H](CC(=O)O)NC1=O [[Glu11]ShK] | – | 0.969 nM | 1.32 nM | 4.54 nM
6 | CC[C@H](C)[C@@H]1NC(=O)[C@@H](NC(=O)[C@H](CO)NC(=O)[C@@H](N)CCCNC(=N)N)CSSC[C@@H](C(=O)O)NC(=O)[C@H]([C@@H](C)O)NC(=O)CNC(=O)[C@@H]2CSSC[C@@H]3NC(=O)[C@H](CCC(N)=O)NC(=O)[C@H](Cc4ccccc4)NC(=O)[C@H](C)NC(=O)[C@H]([C@@H](C)O)NC(=O)[C@H](CSSC[C@H](NC(=O)[C@H](Cc4ccccc4)NC(=O)[C@H](CO)NC(=O)[C@H](CC(C)C)NC(=O)[C@H](CCCNC(=N)N)NC(=O)[C@H](Cc4ccc(O)cc4)NC(=O)[C@H](CCCCN)NC(=O)[C@H](CCSC)NC(=O)[C@H](CO)NC(=O)[C@H](Cc4c[nH]cn4)NC(=O)[C@H](CCCCN)NC3=O)C(=O)N[C@@H](CCCNC(=N)N)C(=O)N[C@@H](CCCCN)C(=O)N[C@@H]([C@@H](C)O)C(=O)N2)NC(=O)[C@H](Cc2cccc3ccccc23)NC(=O)[C@H](CO)NC(=O)[C@H](CCCCN)NC(=O)[C@@H]2CCCN2C(=O)[C@H]([C@@H](C)CC)NC(=O)[C@H]([C@@H](C)O)NC(=O)[C@H](CC(=O)O)NC1=O [[1-Nal11]ShK] | 1.65 nM | 0.922 nM | 1.14 nM | –
7 | CCCC[C@@H]1NC(=O)[C@H](CO)NC(=O)[C@H](Cc2c[nH]cn2)NC(=O)[C@H](CCCCN)NC(=O)[C@@H]2CSSC[C@@H]3NC(=O)[C@H]([C@@H](C)O)NC(=O)[C@H](CCCCN)NC(=O)[C@H](CCCNC(=N)N)NC(=O)[C@H](CSSC[C@H](NC(=O)[C@H](CCCNC(=N)N)NC(=O)[C@H](CO)NC(=O)[C@H](CCCCN)NC(=O)[C@@H]4CCCN4C(=O)[C@H]([C@@H](C)CC)NC(=O)[C@H]([C@@H](C)O)NC(=O)[C@H](CC(=O)O)NC(=O)[C@H](CCC(=O)O)NC(=O)[C@@H](NC(=O)[C@H](CO)NC(=O)[C@@H](N)CCCNC(=N)N)CSSC[C@@H](C(=O)N[C@@H](C)C(=O)O)NC(=O)[C@H]([C@@H](C)O)NC(=O)CNC3=O)C(=O)N[C@@H]([C@@H](C)O)C(=O)N[C@@H](C)C(=O)N[C@@H](Cc3ccccc3)C(=O)N[C@@H](CCCCN)C(=O)N2)NC(=O)[C@H](Cc2ccccc2)NC(=O)[C@H](CO)NC(=O)[C@H](CC(C)C)NC(=O)[C@H](CCCNC(=N)N)NC(=O)[C@H](Cc2ccc(O)cc2)NC(=O)[C@H](CCCCN)NC1=O [[Glu4,Lys16,N1e21]ShK-Ala] | 0.987 nM | 33.3 nM | 0.327 nM | –
8 | CC[C@H](C)[C@@H]1NC(=O)[C@H](CC(=O)O)NC(=O)[C@H]([C@@H](C)O)NC(=O)[C@@H]2CSSC[C@@H]3NC(=O)[C@H](CC(C)C)NC(=O)[C@H](CC(N)=O)NC(=O)[C@H](CC(C)C)NC(=O)[C@H](CCCNC(=N)N)NC(=O)[C@H](Cc4ccc(O)cc4)NC(=O)[C@H](CCCCN)NC(=O)[C@H](CCSC)NC(=O)[C@H](CO)NC(=O)[C@H]([C@@H](C)O)NC(=O)[C@H](CCCNC(=N)N)NC(=O)[C@H](CSSC[C@H](NC(=O)[C@H]([C@@H](C)O)NC(=O)[C@H](CCCCN)NC(=O)[C@H](CCCNC(=N)N)NC3=O)C(=O)NCC(=O)N[C@@H](CO)C(=O)N[C@H](C(=O)O)CSSC[C@H](NC(=O)[C@@H](NC(=O)[C@@H](N)CCCNC(=N)N)[C@@H](C)O)C(=O)N[C@@H](CCCCN)C(=O)N[C@@H](CC(=O)O)C(=O)N[C@@H](CC(C)C)C(=O)N[C@@H]([C@@H](C)CC)C(=O)N3CCC[C@H]3C(=O)N[C@@H](C(C)C)C(=O)N[C@@H](CO)C(=O)N[C@@H](CCC(=O)O)C(=O)N2)NC(=O)[C@H](CCCNC(=N)N)NC1=O [HmK, reference compound] (H-RTCKDLIPVSECTDIRCRTSMKYRLNLCRKTCGSC-OH; disulfide 3-35, 12-28, 17-32) | 1.2 nM | 0.9 nM | 0.85 nM | –
